From patent US20080033026A1, “Antimicrobial compositions, methods and systems” (priority 2006, published 2008)

Columns and labels:
Test in all cases: Preservative effectiveness on food pathogens (US Pharmacopoeia 23)
Type in all cases: cell-based
[1] = system: Listeria monocytogenes (ATCC 19111)
Experimental: (§1) The effectiveness of 9-decenoic acid on food pathogens was determined using the protocol on preservative effectiveness found in the US Pharmacopoeia 23, 1995.
(§2) Stock cultures of the Listeria monocytogenes (ATCC 1911-1), Salmonella enteritidis (ATCC 13076) and Campylobacter jejuni (ATCC 29428) were transferred for at least three consecutives days on Trypticase Soy Agar (TSA) and incubated at 30-35° C. for 18-24 hours. On the day of the test, the cells were washed from the agar surface with sterile saline containing 0.05% w/v Polysorbate 80 (SS+) and the suspension was centrifuged at 2000 rpm for 15 minutes and resuspended in SS+. The suspension was diluted to approximately 10^8 CFU/ml.
(§3) The 9-decenoic acid was diluted in the same manner as previously described to achieve concentrations of 0.25%, 0.125%, 0.0625%, 0.03%, 0.015%, 0.0078% and 0.0039%. The samples were dispensed in 20 ml aliquots in sterile test tubes. For each concentration tested, a 0.1 ml aliquot of each inoculum was added to a final concentration of 10^5 to 10^6 CFU/ml. The tubes were incubated at room temperature and sampled on days 0, 1, 2, 4, 7, 14, 21 and 28.
(§4) At each sample point, 1.0 ml aliquots were withdrawn, serially diluted and plated in triplicate on TSA. The plates were incubated at 30-35° C. for 2-4 days. The colonies were counted and the average CFU/ml was calculated. Controls for purity, viability and sterility were performed as described previously.
(§5) According to the US Pharmacopoeia, a test compound is an effective preservative if the concentrations of viable bacteria remain at or below the initial concentrations during the first fourteen days and after 28 days.
(§6) Additionally, test organisms in Tables 9-11 were exposed to the 9-decenoic acid for several minutes before analysis at Day 0. As shown in the Tables 9-11, significant biocidal activity was observed even within this short time period for the test organisms, illustrating the effectiveness of 9-decenoic acid as a biocidal agent.

[2] = system: Salmonella enteritidis (ATCC 13076)
Experimental: as §1, §2, §3, §4, §5, §6

[3] = system: Campylobacter jejuni (ATCC 29428)
Experimental: as §1, §2
[…] The samples were dispensed in 20 ml aliquots in sterile test tubes. For each concentration tested, a 0.1 ml aliquot of each inoculum was added to a final concentration of 10^5 to 10^6 CFU/ml. The tubes were incubated at room temperature and sampled on days 0, 1, 2, 4, 7, 14, 21 and 28.
as §4, §5, §6

[4] = 0.0078% 9-decenoic acid, exposure day 0
[5] = 0.0078% 9-decenoic acid, exposure day 1
[6] = 0.0078% 9-decenoic acid, exposure day 2
[7] = 0.0078% 9-decenoic acid, exposure day 4
[8] = 0.0078% 9-decenoic acid, exposure day 7
[9] = 0.0078% 9-decenoic acid, exposure day 14
[10] = 0.0078% 9-decenoic acid, exposure day 21
[11] = 0.0078% 9-decenoic acid, exposure day 28
[12] = 0.015% 9-decenoic acid, exposure day 0
[13] = 0.015% 9-decenoic acid, exposure day 1
[14] = 0.015% 9-decenoic acid, exposure day 2
[15] = 0.015% 9-decenoic acid, exposure day 4
[16] = 0.015% 9-decenoic acid, exposure day 7
[17] = 0.015% 9-decenoic acid, exposure day 14
[18] = 0.015% 9-decenoic acid, exposure day 21
[19] = 0.015% 9-decenoic acid, exposure day 28
[20] = 0.03% 9-decenoic acid, exposure day 0
[21] = 0.03% 9-decenoic acid, exposure day 1
[22] = 0.03% 9-decenoic acid, exposure day 2
[23] = 0.03% 9-decenoic acid, exposure day 4
[24] = 0.03% 9-decenoic acid, exposure day 7
[25] = 0.03% 9-decenoic acid, exposure day 14
[26] = 0.03% 9-decenoic acid, exposure day 21
[27] = 0.03% 9-decenoic acid, exposure day 28
[28] = US Pharmacopoeia definition, 28 days

`C=CCCCCCCCC(=O)O` [9-decenoic acid] was tested, and the Log reduction [1, 4] was 1.0 log, the Log reduction [1, 5] was 5.1 log and the Log reduction [1, 6] was 5.1 log. The Log reduction [1, 7] was 5.1 log, the Log reduction [1, 8] was 5.1 log and the Log reduction [1, 9] was 5.1 log. It also gave a Log reduction [1, 10] of 5.1 log, a Log reduction [1, 11] of 5.1 log and a Log reduction [1, 12] of 5.1 log. For the same molecule, the Log reduction [1, 13] was 5.1 log, the Log reduction [1, 14] was 5.1 log and the Log reduction [1, 15] was 5.1 log. The Log reduction [1, 16] was 5.1 log, the Log reduction [1, 17] was 5.1 log and the Log reduction [1, 18] was 5.1 log. The Log reduction [1, 19] was 5.1 log, the Log reduction [1, 20] was 5.1 log and the Log reduction [1, 21] was 5.1 log. The Log reduction [1, 22] was 5.1 log, the Log reduction [1, 23] was 5.1 log and the Log reduction [1, 24] was 5.1 log. The Log reduction [1, 25] was 5.1 log, the Log reduction [1, 26] was 5.1 log and the Log reduction [1, 27] was 5.1 log. The “Concentration at which effective preservative” value (from here on “Concentration”) [1, 28] was no more than 0.0078%, the “Exposure time at which bactericidal” value ([1]; at 0.0078%) was 1 days and the “Exposure time at which bactericidal” value ([1]; at 150 ppm) was 0 days. The Log reduction [2, 4] was 0.53 log, the Log reduction [2, 5] was 3.2 log and the Log reduction [2, 6] was 4.1 log. It also gave a Log reduction [2, 7] of 4.0 log, a Log reduction [2, 8] of 5.1 log and a Log reduction [2, 9] of 5.1 log. For the same molecule, the Log reduction [2, 10] was 5.1 log, the Log reduction [2, 11] was 5.1 log and the Log reduction [2, 12] was 5.1 log. For the same molecule, the Log reduction [2, 13] was 5.1 log, the Log reduction [2, 14] was 5.1 log and the Log reduction [2, 15] was 5.1 log. For the same molecule, the Log reduction [2, 16] was 5.1 log, the Log reduction [2, 17] was 5.1 log and the Log reduction [2, 18] was 5.1 log. It also gave a Log reduction [2, 19] of 5.1 log, a Log reduction [2, 20] of 5.1 log and a Log reduction [2, 21] of 5.1 log. The Log reduction [2, 22] was 5.1 log, the Log reduction [2, 23] was 5.1 log and the Log reduction [2, 24] was 5.1 log. It also gave a Log reduction [2, 25] of 5.1 log, a Log reduction [2, 26] of 5.1 log and a Log reduction [2, 27] of 5.1 log. For the same molecule, the “Concentration” value [2, 28] was no more than 0.0078%, the “Exposure time at which bactericidal” value ([2]; at 0.0078%) was 7 days and the “Exposure time at which bactericidal” value ([2]; at 0.015%) was 0 days. The Log reduction [3, 4] was 0 log, the Log reduction [3, 5] was 0.67 log and the Log reduction [3, 6] was 5.1 log. It also gave a Log reduction [3, 7] of 5.1 log, a Log reduction [3, 8] of 5.1 log and a Log reduction [3, 9] of 5.1 log. For the same molecule, the Log reduction [3, 10] was 5.1 log, the Log reduction [3, 11] was 5.1 log and the Log reduction [3, 12] was 2.8 log. It also gave a Log reduction [3, 13] of 5.1 log, a Log reduction [3, 14] of 5.1 log and a Log reduction [3, 15] of 5.1 log. The Log reduction [3, 16] was 5.1 log, the Log reduction [3, 17] was 5.1 log and the Log reduction [3, 18] was 5.1 log. It also gave a Log reduction [3, 19] of 5.1 log, a Log reduction [3, 20] of 5.1 log and a Log reduction [3, 21] of 5.1 log. The Log reduction [3, 22] was 5.1 log, the Log reduction [3, 23] was 5.1 log and the Log reduction [3, 24] was 5.1 log. It also gave a Log reduction [3, 25] of 5.1 log, a Log reduction [3, 26] of 5.1 log and a Log reduction [3, 27] of 5.1 log. The “Concentration” value [3, 28] was no more than 0.0078%, the “Exposure time at which bactericidal” value ([3]; at 0.0015%) was 1 days and the “Exposure time at which bactericidal” value ([3]; at 0.0078%) was 2 days. The “Exposure time at which bactericidal” value ([3]; for 0.003%) was 0 days.
